From patent US8367709B2, “Dipeptide analogs as coagulation factor inhibitors” (priority 2007, dated 2013)
Structures can show the parent of a compound that is named as a salt.

molecular target: T1, purified human Factor XIa (Homo sapiens, UniProt P03951); test: Factor XIa assay (chromogenic substrate S-2366 hydrolysis, Ki); type: biochemical; conditions: not given
T1 construct: purchased Haematologic Technologies
Protocol: The effectiveness of compounds of the present invention as inhibitors of the coagulation factors XIa, VIIa, IXa, Xa, XIIa, plasma kallikrein or thrombin, can be determined using a relevant purified serine protease, respectively, and an appropriate synthetic substrate. The rate of hydrolysis of the chromogenic or fluorogenic substrate by the relevant serine protease was measured both in the absence and presence of compounds of the present invention. […] A decrease in the rate of absorbance or fluorescence change in the presence of inhibitor is indicative of enzyme inhibition. Such methods are known to one skilled in the art. The results of this assay are expressed as the inhibitory constant, Ki.
Values of Ki were determined by allowing the protease to react with the substrate in the presence of the inhibitor. Reactions were allowed to go for periods of 20-180 minutes (depending on the protease) and the velocities (rate of absorbance or fluorescence change versus time) were measured. The following relationships were used to calculate Ki values:
vs/vo=A+((B−A)/1+((IC50/(I)^n))) and […]

T1 sequence (P03951 19-387): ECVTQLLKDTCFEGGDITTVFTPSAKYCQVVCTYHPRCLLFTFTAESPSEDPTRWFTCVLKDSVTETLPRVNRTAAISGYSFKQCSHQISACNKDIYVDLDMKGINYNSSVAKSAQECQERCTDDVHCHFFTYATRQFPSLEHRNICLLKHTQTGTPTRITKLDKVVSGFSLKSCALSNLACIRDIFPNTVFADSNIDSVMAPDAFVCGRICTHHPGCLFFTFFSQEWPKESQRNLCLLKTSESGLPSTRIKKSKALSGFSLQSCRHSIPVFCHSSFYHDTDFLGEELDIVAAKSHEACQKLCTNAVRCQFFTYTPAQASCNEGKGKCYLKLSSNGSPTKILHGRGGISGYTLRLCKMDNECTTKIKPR
T1 sequence (P03951 388-625): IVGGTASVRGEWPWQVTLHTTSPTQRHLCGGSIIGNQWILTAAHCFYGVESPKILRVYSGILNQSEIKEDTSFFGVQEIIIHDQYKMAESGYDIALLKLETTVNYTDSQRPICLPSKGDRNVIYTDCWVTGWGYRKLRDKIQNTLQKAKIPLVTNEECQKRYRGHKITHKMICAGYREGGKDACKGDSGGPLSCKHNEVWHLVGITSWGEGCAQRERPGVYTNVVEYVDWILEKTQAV

Ki [µM]	Compound
6.5	O=C(N[C@@H](Cc1ccccc1)C(=O)NCCc1cc(Cl)ccc1-n1cnnn1)c1n[nH]c2ccccc12 [Example 149, (S)—N-(1-(5-chloro-2-(1H-tetrazol-1-yl)phenethylamino)-1-oxo-3-phenylpropan-2-yl)-1H-indazole-3-carboxamide]
9.37	O=C1CNC(=O)c2ccc(C(=O)N[C@@H](Cc3ccccc3)C(=O)NCCc3cc(Cl)ccc3-n3cnnn3)cc2N1 [Example 187, (S)—N-(1-(5-chloro-2-(1H-tetrazol-1-yl)phenethylamino)-1-oxo-3-phenylpropan-2-yl)-2,5-dioxo-2,3,4,5-tetrahydro-1H-benzo[e][1,4]diazepine-8-carboxamide]
8.31	O=C(/C=C/c1cc(Cl)ccc1-n1cnnn1)N[C@@H](Cc1ccccc1)C(=O)N[C@@H]1CCCCNC1=O [Example 196]
0.0276	Nc1nc2ccc(C(=O)N[C@@H](Cc3ccccc3)C(=O)NCCc3cc(Cl)ccc3-n3cnnn3)cc2s1 [Example 204, (S)-2-amino-N-(1-(5-chloro-2-(1H-tetrazol-1-yl)phenethylamino)-1-oxo-3-phenylpropan-2-yl)benzo[d]thiazole-6-carboxamide, TFA salt]
0.0195	O=C1CSc2cc(C(=O)N[C@@H](Cc3ccccc3)C(=O)NCCc3cc(Cl)ccc3-n3cnnn3)ccc2N1 [Example 206, (S)—N-(1-(5-chloro-2-(1H-tetrazol-1-yl)phenethylamino)-1-oxo-3-phenylpropan-2-yl)-3-oxo-3,4-dihydro-2H-benzo[b][1,4]thiazine-7-carboxamide]
9.26	O=C(N[C@@H](Cc1ccccc1)C(=O)NCCc1cc(Cl)ccc1-n1cnnn1)c1cn2cccnc2n1 [Example 295]

Second part, the compound before the results:

Compound	Ki [µM]
COC(=O)c1ccc(NC(=O)[C@H](Cc2cc(C)n(C)n2)NC(=O)/C=C/c2c(-n3cnnn3)ccc(Cl)c2F)nc1 [Example 216, (S,E)-methyl 6-(2-(3-(3-chloro-2-fluoro-6-(1H-tetrazol-1-yl)phenyl)acrylamido)-3-(1,5-dimethyl-1H-pyrazol-3-yl)propanamido)nicotinate, TFA salt]	0.0659
CS(=O)(=O)CC[C@H](NC(=O)/C=C/c1cc(Cl)ccc1-n1cnnn1)C(=O)Nc1ccc(C(=O)O)cc1 [Example 231, (S,E)-4-(2-(3-(5-chloro-2-(1H-tetrazol-1-yl)phenyl)acrylamido)-4-(methylsulfonyl)butanamido)benzoic acid]	0.0444
O=C(/C=C/c1cc(Cl)ccc1-n1cnnn1)NC(Cc1cnc2ccccc2n1)C(=O)Nc1ccc(C(=O)O)cc1 (stereo not drawn) [Example 251, (E)-4-(2-(3-(5-chloro-2-(1H-tetrazol-1-yl)phenyl)acrylamido)-3-(quinoxalin-2-yl)propanamido)benzoic acid]	0.0162
O=C(/C=C/c1cc(Cl)ccc1-n1cnnn1)N[C@@H](CC(=O)NCc1cnccn1)C(=O)Nc1ccc(C(=O)O)cc1 [Example 252, (S,E)-4-(2-(3-(5-chloro-2-(1H-tetrazol-1-yl)phenyl)acrylamido)-4-oxo-4-(pyrazin-2-ylmethylamino)butanamido)benzoic acid]	0.0162
N/C(=N/[N+](=O)[O-])NCCC[C@H](NC(=O)/C=C/c1cc(Cl)ccc1-n1cnnn1)C(=O)Nc1ccc(C(=O)O)cc1 [Example 253, 4-((S)-2-((E)-3-(5-chloro-2-(1H-tetrazol-1-yl)phenyl)acrylamido)-5-((Z)-2-nitroguanidino)pentanamido)benzoic acid]	0.0193
COC[C@H](NC(=O)/C=C/c1cc(Cl)ccc1-n1cnnn1)C(=O)Nc1ccc(C(=O)O)cc1 [Example 254, (S,E)-4-(2-(3-(5-chloro-2-(1H-tetrazol-1-yl)phenyl)acrylamido)-3-methoxypropanamido)benzoic acid]	3.63
O=C(/C=C/c1cc(Cl)ccc1-n1cnnn1)N[C@H](C(=O)Nc1ccc(C(=O)O)cc1)[C@@H]1CCCNC1 [Example 262, 4-((S)-2-((E)-3-(5-chloro-2-(1H-tetrazol-1-yl)phenyl)acrylamido)-2-((R)-piperidin-3-yl)acetamido)benzoic acid]	2.33
CC(C)(C)SC[C@H](NC(=O)/C=C/c1cc(Cl)ccc1-n1cnnn1)C(=O)Nc1ccc(C(=O)O)cc1 [Example 282, (R,E)-4-(3-(tert-butylthio)-2-(3-(5-chloro-2-(1H-tetrazol-1-yl)phenyl)acrylamido)propanamido)benzoic acid]	0.0325
O=C(/C=C/c1cc(Cl)ccc1-n1cnnn1)N[C@@H](CC(=O)NCCN1CCOCC1)C(=O)Nc1ccc(C(=O)O)cc1 [Example 286, (S,E)-4-(2-(3-(5-chloro-2-(1H-tetrazol-1-yl)phenyl)acrylamido)-4-(2-morpholinoethylamino)-4-oxobutanamido)benzoic acid, Trifluoroacetic acid salt]	0.481
O=C(/C=C/c1cc(Cl)ccc1-n1cnnn1)N[C@@H](CC1CCN(C(=O)c2ccccc2)C1)C(=O)Nc1ccc(C(=O)O)cc1 (stereo partly drawn) [Example 307, 4-((2S)-3-(1-benzoylpyrrolidin-3-yl)-2-((E)-3-(5-chloro-2-(1H-tetrazol-1-yl)phenyl)acrylamido)propanamido)benzoic acid]	0.0124

same assay, conditions: purified human Factor XIa 75-200 pM, substrate S-2366, 50 mM HEPES pH 7.4; read-out: Factor XIa Ki

Ki [µM]	Compound
0.0381	COP(=O)(CCOC(=O)Nc1ccc(NC(=O)[C@H](Cc2ccccc2)NC(=O)/C=C/c2cc(Cl)ccc2-n2cnnn2)cc1)OC [Example 171, (S,E)-2-(dimethoxyphosphoryl)ethyl 4-(2-(3-(5-chloro-2-(1H-tetrazol-1-yl)phenyl)-acrylamido)-3-phenylpropanamido)phenylcarbamate]
0.00466	O=C(/C=C/c1cc(Cl)ccc1-n1cnnn1)N[C@@H](Cc1c[nH]c2ccccc12)C(=O)Nc1ccc(C(=O)O)cc1 [Example 238, (S,E)-4-(2-(3-(5-chloro-2-(1H-tetrazol-1-yl)phenyl)acrylamido)-3-(1H-indol-3-yl)propanamido)benzoic acid, TFA salt]
0.00241	O=C(/C=C/c1cc(Cl)ccc1-n1cnnn1)N[C@@H](Cc1cccs1)C(=O)Nc1ccc(C(=O)O)cc1 [Example 248, (S,E)-4-(2-(3-(5-chloro-2-(1H-tetrazol-1-yl)phenyl)acrylamido)-3-(thiophen-2-yl)propanamido)benzoic acid]
0.00609	O=C(/C=C/c1cc(Cl)ccc1-n1cnnn1)N[C@@H](Cc1cccnc1)C(=O)Nc1ccc(C(=O)O)cc1 [Example 249, (S,E)-4-(2-(3-(5-chloro-2-(1H-tetrazol-1-yl)phenyl)acrylamido)-3-(pyridin-3-yl)propanamido)benzoic acid]

Compound	Ki [µM]
(4-{(S)-2-[(E)-3-(5-chloro-2-tetrazol-1-yl-phenyl)-acryloylamino]-3-phenyl-propionylamino}-cyclohexyl)-carbamic acid methyl ester [Example 11]	4.44
